Test results as given in ChEMBL document CHEMBL6177968, “Development of sulfamoylbenzamide-based capsid assembly modulators for hepatitis B virus capsid assembly” (Eur J Med Chem, 2025).

What was measured:
[1] = Selectivity index, ratio of CC50 for cytotoxicity in human HepG2.2.15 cells assessed as reduction in cell viability to EC50 for antiviral activity against HBV in human HepG2.2.15 cells assessed as reduction in viral replication; assay type: toxicity, cell-based; conditions: read-out: Ratio CC50/EC50
Hepatitis B virus [2] = experiment: Antiviral activity against HBV in human HepG2.2.15 cells assessed as reduction in viral replication incubated for 5 days by real-time PCR analysis; assay type: functional, organism-based; conditions: HepG2.2.15, 120 h
[3] = Cytotoxicity in human HepG2.2.15 cells assessed as reduction in cell viability; assay type: toxicity, cell-based, HepG2 2.2.15
Hepatitis B virus [4] = experiment: Antiviral activity against HBV infected in human HepG2 cells expressing NTCP assessed as capsid associated HBV DNA level at 1 uM incubated for 6 days by Western blot analysis (reference value: 100 %); assay type: functional; conditions: time 6 day
[5] = Selectivity index, ratio of CC50 for cytotoxicity in human HepaRG cells assessed as reduction in cell viability to EC50 for antiviral activity against HBV in human HepaRG cells assessed as reduction in viral replication; assay type: toxicity, cell-based; conditions: read-out: Ratio CC50/EC50
Hepatitis B virus [6] = experiment: Antiviral activity against HBV infected in human HepG2 cells expressing NTCP assessed as viral DNA replication at 1 uM incubated for 6 days by Southern blot analysis (reference value: 100 %); assay type: functional; conditions: time 6 day
Hepatitis B virus [7] = experiment: Antiviral activity against HBV infected in human HepG2 cells expressing NTCP assessed as intracellular HBc level at 1 uM incubated for 6 days by Western blot analysis (reference value: 100 %); assay type: functional; conditions: time 6 day
[8] = Cytotoxicity in human HepG2-hNTCP cells assessed as reduction in cell viability; assay type: toxicity, cell-based
Hepatitis B virus [9] = experiment: Antiviral activity against HBV infected in human HepG2 cells expressing NTCP assessed as capsid level at 1 uM incubated for 6 days by Western blot analysis (reference value: 100 %); assay type: functional; conditions: time 6 day
Hepatitis B virus [10] = experiment: Antiviral activity against HBV in human HepaRG cells assessed as reduction in viral replication; assay type: functional, organism-based
[11] = Selectivity index, ratio of CC50 for cytotoxicity in human HepG2-hNTCP cells assessed as reduction in cell viability to EC50 for antiviral activity against HBV in human HepG2-hNTCP cells assessed as reduction in viral replication; assay type: toxicity, cell-based; conditions: read-out: Ratio CC50/EC50
Hepatitis B virus [12] = experiment: Antiviral activity against HBV infected in human HepG2 cells expressing NTCP assessed as ratio of capsid associated HBV DNA level at 1 uM incubated for 6 days by Western blot analysis (reference value: 100 %); assay type: functional; conditions: time 6 day
Hepatitis B virus [13] = experiment: Antiviral activity against HBV in human HepG2 cells expressing NTCP assessed as reduction in viral replication; assay type: functional, organism-based
[14] = Cytotoxicity in human HepaRG cells assessed as reduction in cell viability; assay type: toxicity, cell-based
[15] = Metabolic stability in mouse liver microsomes assessed as compound remaining measured after 30 mins; assay type: ADME, Microsome; conditions: read-out: Stability
[16] = Metabolic stability in rat liver microsomes assessed as compound remaining measured after 30 mins; assay type: ADME, Microsome; conditions: read-out: Stability
[17] = Metabolic stability in human liver microsomes assessed as compound remaining measured after 30 mins; assay type: ADME, Microsome; conditions: read-out: Stability

| SMILES | selectivity ratio [1] | EC50 (Hepatitis B virus [2]) [µM] | CC50 [3] [µM] | other results |
| --- | --- | --- | --- | --- |
| C[C@@H](NS(=O)(=O)c1cc(C(=O)Nc2ccc(F)c(C(F)F)c2)c(N)cc1F)C1COC1 | 399 | 0.47 | 187 |  |
| O=C(Nc1cc(F)c(F)c(F)c1)c1ccc(F)c(S(=O)(=O)N2CCC(O)CC2)c1 |  |  |  | Activity (Hepatitis B virus [4]): 95%; selectivity ratio [5]: 6.15; Activity (Hepatitis B virus [6]): 61%; Activity (Hepatitis B virus [7]): 82%; CC50 [8]: 24.2 µM; Activity (Hepatitis B virus [9]): 136%; EC50 (Hepatitis B virus [10]): 3.74 µM; selectivity ratio [11]: 75.7; Ratio (Hepatitis B virus [12]): 69%; EC50 (Hepatitis B virus [13]): 0.32 µM; CC50 [14]: 23 µM |
| Nc1cc(F)c(S(=O)(=O)N2CC3(COC3)C2)cc1C(=O)Nc1ccc(F)c(F)c1 | 386 | 0.44 | 170 |  |
| Nc1cc(F)c(S(=O)(=O)N2CC3CCC(C2)O3)cc1C(=O)Nc1ccc(F)c(F)c1 | 38.5 | 0.36 | 14 |  |
| Nc1cc(F)c(S(=O)(=O)NC2CCC2)cc1C(=O)Nc1ccc(F)c(C(F)F)c1 | 125 | 0.18 | 22.8 |  |
| Nc1cc(F)c(S(=O)(=O)NC2CNC2)cc1C(=O)Nc1ccc(F)c(F)c1 | 56.5 | 1.52 | 85.8 |  |
| Nc1cc(F)c(S(=O)(=O)N2CC3(COC3)C2)cc1C(=O)Nc1ccc(F)c(C(F)F)c1 | > 3540 | 0.25 | > 900 |  |
| Nc1cc(F)c(S(=O)(=O)NC2CCOCC2)cc1C(=O)Nc1ccc(F)c(F)c1 | 21.1 | 1.4 | 29.5 |  |
| CC1(CNS(=O)(=O)c2cc(C(=O)Nc3ccc(F)c(C(F)F)c3)c(N)cc2F)COC1 | 14300 | 0.06 | 855 | remaining at 0.5 h [15]: 1.37%; remaining at 0.5 h [16]: 8.38%; remaining at 0.5 h [17]: 23.6% |
| Nc1cc(F)c(S(=O)(=O)N2CCOCC2)cc1C(=O)Nc1ccc(F)c(Cl)c1 |  | > 30 | 198 |  |
| Nc1cc(F)c(S(=O)(=O)N2CCCOCC2)cc1C(=O)Nc1ccc(F)c(F)c1 | 48.6 | 0.22 | 10.7 |  |
| Nc1cc(F)c(S(=O)(=O)N2CCS(=O)(=O)CC2)cc1C(=O)Nc1ccc(F)c(C(F)F)c1 | 1740 | 0.22 | 385 |  |
| Nc1cc(F)c(S(=O)(=O)NC2CCNC2)cc1C(=O)Nc1ccc(F)c(F)c1 (centres undefined) | 14.5 | 7.52 | 109 |  |
| Nc1cc(F)c(S(=O)(=O)N[C@H]2COC(=O)C2)cc1C(=O)Nc1ccc(F)c(C(F)F)c1 | 237 | 2.95 | 698 |  |
| C[C@H](CO)NS(=O)(=O)c1cc(C(=O)Nc2ccc(F)c(F)c2)c(N)cc1F | 296 | 0.69 | 204 |  |
| CC(C)(NS(=O)(=O)c1cc(C(=O)Nc2ccc(F)c(C(F)F)c2)c(N)cc1F)C1COC1 | 277 | 0.58 | 161 | remaining at 0.5 h [15]: 0.03%; remaining at 0.5 h [16]: 5.63%; remaining at 0.5 h [17]: 17.2% |

| SMILES | selectivity ratio [1] | EC50 (Hepatitis B virus [2]) [µM] | CC50 [3] [µM] | other results |
| --- | --- | --- | --- | --- |
| CC1(NS(=O)(=O)c2cc(C(=O)Nc3ccc(F)c(C(F)F)c3)c(N)cc2F)COC1 | 458 | 0.06 | 26.1 |  |
| Nc1cc(F)c(S(=O)(=O)NCC2COC2)cc1C(=O)Nc1ccc(F)c(C(F)F)c1 | 1160 | 0.13 | 150 | remaining at 0.5 h [15]: 31.9%; remaining at 0.5 h [16]: 26%; remaining at 0.5 h [17]: 56.2% |
| Nc1cc(F)c(S(=O)(=O)N2CCNCC2)cc1C(=O)Nc1ccc(F)c(F)c1 | 26.4 | 1.19 | 31.5 |  |
| CN(C1COC1)S(=O)(=O)c1cc(C(=O)Nc2ccc(F)c(C(F)F)c2)c(N)cc1F | 115 | 0.07 | 7.68 |  |
| Nc1cc(F)c(S(=O)(=O)N2CCOCC2)cc1C(=O)Nc1ccc(F)c(F)c1 | 610 | 0.41 | 248 |  |
| Nc1cc(F)c(S(=O)(=O)N[C@@H]2CNC2=O)cc1C(=O)Nc1ccc(F)c(C(F)F)c1 |  | > 30 | > 900 |  |
| N#Cc1cc(NC(=O)c2cc(S(=O)(=O)N3CCOCC3)c(F)cc2N)ccc1F | > 299 | 3.01 | > 900 |  |
| Nc1cc(F)c(S(=O)(=O)N[C@@H]2CCOC2=O)cc1C(=O)Nc1ccc(F)c(C(F)F)c1 | 147 | 1.61 | 238 |  |
| Cc1cc(NC(=O)c2cc(S(=O)(=O)N3CCOCC3)c(F)cc2N)ccc1F | 94.7 | 4.58 | 433 |  |
| Nc1cc(F)c(S(=O)(=O)NC2CCOC2)cc1C(=O)Nc1ccc(F)c(F)c1 (centres undefined) | 53.6 | 0.49 | 26.3 |  |
| Nc1cc(F)c(S(=O)(=O)N2CCCOCC2)cc1C(=O)Nc1ccc(F)c(C(F)F)c1 | 96.2 | 0.05 | 5.14 |  |
| CC(C)NS(=O)(=O)c1cc(C(=O)Nc2ccc(F)c(F)c2)c(N)cc1F | 36.8 | 0.25 | 9.29 |  |
| COCCNS(=O)(=O)c1cc(C(=O)Nc2ccc(F)c(F)c2)c(N)cc1F | 32.1 | 3.02 | 97 |  |
| Nc1cc(F)c(S(=O)(=O)N2CCOCC2)cc1C(=O)Nc1ccc(F)c(C(F)F)c1 | 4240 | 0.16 | 681 |  |
| C[C@@H](CO)NS(=O)(=O)c1cc(C(=O)Nc2ccc(F)c(F)c2)c(N)cc1F | 73.7 | 2.12 | 156 |  |
| Nc1cc(F)c(S(=O)(=O)N2CC3COCC3C2)cc1C(=O)Nc1ccc(F)c(C(F)F)c1 (centres undefined) | > 9330 | 0.1 | > 900 | remaining at 0.5 h [15]: 0.09%; remaining at 0.5 h [16]: 0.79%; remaining at 0.5 h [17]: 0.76% |
